# Test results taken from article PMC8639922, “KSHV transactivator-derived small peptide traps coactivators to attenuate MYC and inhibits leukemia and lymphoma cell growth” (Communications Biology, 2021).
# Where “and” joins values, the source holds several entries; their conditions need not be identical. Equal values may be shown once. Square brackets hold non-standard residues; d marks the D form. Peptide text beside a SMILES is read from it. Orn = NCCC[C@H](N)C(=O)O; βAla = NCCC(=O)O
# Tested on: KSHV lytic gene expression in TREx-K-Rta BCBL-1 cells
# Assay: KSHV genome-wide qRT-PCR array
# Assay type: cell-based
# Conditions: D
# Description: Because VGN50 is derived from the KSHV transactivator sequence, we next examined if VGN50 can inhibit KSHV lytic replication by competitively blocking the coactivator binding to K-Rta. To study this, we used the TREx-K-Rta BCBL-1 cell line, in which we can trigger the expression of exogenous Flag-tagged K-Rta in a doxycycline (Dox) inducible manner. TREx-K-Rta BCBL-1 cells were treated with […] VGN50 or mutant peptide, with or without Dox induction. We used approximately one-half of the IC50 concentration of VGN50 to treat the TREx-K-Rta BCBL-1 cells in order to avoid cell toxicity effects that would non-specifically decrease viral gene expression. KSHV gene expression was profiled with a KSHV genome-wide PCR array, using ribosomal rRNA for normalization and as an internal control. Fold activation relative to the uninduced Mut-P-treated sample (not induced: Dox -) was determined and a heatmap for KSHV lytic gene expression was generated (Fig. 3a). […] Immunoblotting was used to confirm the induction of lytic replication by Dox based on exogenous K-Rta protein (Flag-K-Rta) and the expression of two other KSHV lytic proteins (ORF57 and K-bZIP) along with actin and KSHV LANA protein as controls for equal loading and similar viral copy numbers in samples, respectively (Fig. 3b).
# Fig. 3 Effects of VGN50 on KSHV gene transcription and VGN50 binding with SWI/SNF components. a KSHV qRT-PCR array analysis was used to study effects of VGN50 on KSHV gene transcription in a genome-wide manner. Uninduced (−; no doxycycline added) or dox-induced (+; 1 μg/ml) cells were treated with VGN50 or the mutant peptide (Mut-P) at a concentration of 24 μM. Samples were collected at 24 h post-treatment. Expression in uninduced cells was set as 1 for each viral gene and expression shown as fold activation relative to no-Dox samples. Selected cellular genes were also included in the PCR array for comparison. 18S ribosomal RNA was used as an internal control. b KSHV protein expression. Immunoblotting was performed to confirm both endogenous and exogenous K-Rta expression before (not induced) and after induction by Dox treatment (Dox-induced). Latent KSHV protein LANA and actin were used as controls for KSHV copy number (LANA) and loading (actin), respectively. Protein samples were collected 48-h post Dox incubation. c KSHV reactivation by VGN50 incubation. BCBL-1 and BC-1 cell lines were treated with VGN50 (16 μM concentration) and total RNA harvested at 24 h post treatment. KSHV PAN RNA expression was examined by qRT-PCR and relative expression over 18S rRNA is shown. Data are presented as mean ± SD (n = 3). d Purification of recombinant SWI/SNF components. SDS-PAGE analysis of five SWI/SNF components individually prepared from baculovirus-infected Sf9 cells. e A schematic illustration of ELISA assay to evaluate VGN50 and SWI/SNF interaction. f Analysis of VGN50 binding to SWI/SNF components by ELISA. Increasing concentrations of biotin-conjugated VGN50 or Mut-P were incubated in duplicate in an ELISA plate coated with each SWI/SNF component. Peptide binding measured as OD values at 450 nm are shown. Mean OD values were compared between the VGN50 and Mut-P in each concentration using unpaired t-test. **p < 0.01, *p < 0.05, NS no significance. Data are presented as mean ± SD with duplicated samples and repeated three times with different purified protein preps.
# [1] = values are 2^-ddCT (fold vs MT ND)
# [2] = values are 2^-ddCT (fold vs MT ND), listed as MT
structure (smiles),measurement,setting,value
CC(C)C[C@H](NC(=O)CCNC(=O)[C@H](CCCNC(=N)N)NC(=O)[C@H](CCCNC(=N)N)NC(=O)[C@H](CCCNC(=N)N)NC(=O)[C@H](CCCN)NC(=O)[C@H](CCCNC(=N)N)NC(=O)[C@H](CCCNC(=N)N)NC(=O)[C@H](CCCCN)NC(=O)[C@H](CCCCN)NC(=O)[C@H](N)CCCNC(=N)N)C(=O)N[C@@H](CO)C(=O)N[C@@H](CO)C(=O)N[C@@H](C)C(=O)N[C@@H](C)C(=O)N[C@@H](C)C(=O)NCC(=O)N[C@@H](CC(C)C)C(=O)N[C@@H](Cc1ccc(O)cc1)C(=O)N[C@@H](CCC(N)=O)C(=O)N[C@@H](CC(C)C)C(=O)N[C@@H](CC(=O)O)C(=O)N[C@H](C(=O)O)[C@@H](C)O [Mt-P] (H-[dR]KKRR[Orn]RRR[βAla]LSSAAAGLYQLDT-OH; N-terminus and C-terminus assumed),IL- 6 ddCT (vs 18s and MT ND),,-2.234
same,IL- 10 ddCT (vs 18s and MT ND),,0.213
same,ORF21 fold vs MT ND (headed ddCT),,10.438
same,ORF 50 k-kta fold vs MT ND (headed ddCT),,158.652
same,k 2 fold vs MT ND (headed ddCT),,197.507
same,K 9 fold vs MT ND (headed ddCT),listed as MT,11.999 and 11.9991
same,K 10 fold vs MT ND (headed ddCT),listed as MT,11.665 and 11.6651
same,ORF2 fold vs MT ND (headed ddCT),listed as MT,35.093 and 35.0927
same,ORF4 fold vs MT ND (headed ddCT),listed as MT,46.543 and 46.5425
same,ORF6 fold vs MT ND (headed ddCT),listed as MT,13.632 and 13.6318
same,ORF7 fold vs MT ND (headed ddCT),listed as MT,12.162 and 12.1623
same,ORF8 fold vs MT ND (headed ddCT),listed as MT,10.223 and 10.2233
same,ORF9 fold vs MT ND (headed ddCT),listed as MT,6.076
same,ORF11 fold vs MT ND (headed ddCT),listed as MT,18.177 and 18.1766
same,ORF16 fold vs MT ND (headed ddCT),listed as MT,8.699 and 8.6991
same,ORF17 fold vs MT ND (headed ddCT),listed as MT,6.815
same,ORF18 fold vs MT ND (headed ddCT),listed as MT,4.417
same,ORF19 fold vs MT ND (headed ddCT),listed as MT,8.897
same,ORF 20 fold vs MT ND (headed ddCT),listed as MT,5.481
same,ORF22.1 fold vs MT ND (headed ddCT),listed as MT,6.976
same,ORF23 fold vs MT ND (headed ddCT),listed as MT,4.718
same,ORF24 fold vs MT ND (headed ddCT),listed as MT,6.384
same,ORF 25 fold vs MT ND (headed ddCT),listed as MT,4.629
same,ORF26 fold vs MT ND (headed ddCT),listed as MT,6.591
same,ORF27 fold vs MT ND (headed ddCT),listed as MT,19.313 and 19.3133
same,ORF28 fold vs MT ND (headed ddCT),listed as MT,5.046
same,ORF29 fold vs MT ND (headed ddCT),listed as MT,22.418 and 22.4181
same,ORF30 fold vs MT ND (headed ddCT),listed as MT,5.617
same,ORF31 fold vs MT ND (headed ddCT),listed as MT,9.188
same,ORF32 fold vs MT ND (headed ddCT),listed as MT,3.227
same,ORF33 fold vs MT ND (headed ddCT),listed as MT,10.461 and 10.4609
same,ORF34 fold vs MT ND (headed ddCT),listed as MT,6.891
same,ORF35 fold vs MT ND (headed ddCT),listed as MT,7.441
same,ORF36 fold vs MT ND (headed ddCT),listed as MT,21.557 and 21.5571
same,ORF37 fold vs MT ND (headed ddCT),listed as MT,14.520 and 14.5196
same,ORF38 fold vs MT ND (headed ddCT),listed as MT,28.906 and 28.9062
same,ORF39 fold vs MT ND (headed ddCT),listed as MT,11.635 and 11.6345
same,ORF40 fold vs MT ND (headed ddCT),listed as MT,4.674
same,ORF41 fold vs MT ND (headed ddCT),listed as MT,21.065 and 21.0654
same,ORF42 fold vs MT ND (headed ddCT),listed as MT,3.993
same,ORF43 fold vs MT ND (headed ddCT),listed as MT,8.726
same,ORF44 fold vs MT ND (headed ddCT),listed as MT,33.337 and 33.3373
same,ORF45 fold vs MT ND (headed ddCT),listed as MT,53.618 and 53.6182
same,ORF 46 fold vs MT ND (headed ddCT),listed as MT,6.457
same,ORF 47 fold vs MT ND (headed ddCT),listed as MT,62.278 and 62.2783
same,ORF48 fold vs MT ND (headed ddCT),listed as MT,31.118 and 31.1177
same,ORF49 fold vs MT ND (headed ddCT),listed as MT,16.390 and 16.3905
same,ORF52 fold vs MT ND (headed ddCT),listed as MT,27.531 and 27.5312
same,ORF53 fold vs MT ND (headed ddCT),listed as MT,16.215 and 16.2146
same,ORF54 fold vs MT ND (headed ddCT),listed as MT,10.079 and 10.0788
same,ORF55 fold vs MT ND (headed ddCT),listed as MT,10.827 and 10.8272
same,ORF56 fold vs MT ND (headed ddCT),listed as MT,13.04
same,ORF57 fold vs MT ND (headed ddCT),listed as MT,22.128 and 22.1283
same,ORF70 fold vs MT ND (headed ddCT),listed as MT,15.204 and 15.2038
same,T1.5 ori RNA fold vs MT ND (headed ddCT),listed as MT,26.465 and 26.4646
same,k 1 fold vs MT ND (headed ddCT),listed as MT,7.768
same,k 3 fold vs MT ND (headed ddCT),listed as MT,12.567 and 12.5669
same,k 4 fold vs MT ND (headed ddCT),listed as MT,33.463 and 33.4629
same,k 6 -2 fold vs MT ND (headed ddCT),listed as MT,13.375 and 13.3749
same,k 7 real fold vs MT ND (headed ddCT),listed as MT,14.740 and 14.7397
same,pan set 2 fold vs MT ND (headed ddCT),listed as MT,11.431 and 11.4312
same,"EGFP ddCT (vs 18s and MT ND), second block",[1],2.182
same,"IL- 6 ddCT (vs 18s and MT ND), second block",[1],4.704
same,"ORF67 ddCT (vs 18s and MT ND), second block",[1],1.460
same,"ORF68 ddCT (vs 18s and MT ND), second block",[1],3.433
same,"ORF74 ddCT (vs 18s and MT ND), second block",[1],1.662
same,"k 14 ddCT (vs 18s and MT ND), second block",[1],1.713
same,"IL- 10 ddCT (vs 18s and MT ND), second block",[2],0.863 and 0.8629
same,"K 11 ddCT (vs 18s and MT ND), second block",[2],85.514 and 85.5135
same,"K 12 ddCT (vs 18s and MT ND), second block",[2],1.587
same,"K 15 ddCT (vs 18s and MT ND), second block",[2],1.316
same,"ORF 58 ddCT (vs 18s and MT ND), second block",[2],7.125
same,"ORF59 ddCT (vs 18s and MT ND), second block",[2],3.052
same,"ORF60 ddCT (vs 18s and MT ND), second block",[2],1.439
same,"ORF61 ddCT (vs 18s and MT ND), second block",[2],2.555
same,"ORF 62 ddCT (vs 18s and MT ND), second block",[2],2.303
same,"ORF63 ddCT (vs 18s and MT ND), second block",[2],4.399
same,"ORF64 ddCT (vs 18s and MT ND), second block",[2],5.462 and 5.4617
same,"ORF65 ddCT (vs 18s and MT ND), second block",[2],2.091
same,"ORF66 ddCT (vs 18s and MT ND), second block",[2],6.232
same,"ORF69 ddCT (vs 18s and MT ND), second block",[2],3.398
same,"ORF71 ddCT (vs 18s and MT ND), second block",[2],6.849
same,"ORF72 ddCT (vs 18s and MT ND), second block",[2],2.075
same,"ORF 73 ddCT (vs 18s and MT ND), second block",[2],1.648
same,"ORF75 ddCT (vs 18s and MT ND), second block",[2],1.427
same,"T0.7 #1 ddCT (vs 18s and MT ND), second block",[2],5.275
same,"T0.7 #2 ddCT (vs 18s and MT ND), second block",[2],2.071
same,"T1.5 #2 ddCT (vs 18s and MT ND), second block",[2],13.571 and 13.5709
same,"VIRF3 ddCT (vs 18s and MT ND), second block",[2],5.775
